Reference: patent publication US20110251220A1, “Pharmaceutical compositions comprising gamma secretase modulators” (priority 2008, published 2011)

Tests used:
Format in all cases: cell-based, human
[1] = test system: OCL; assay: PARP cleavage in osteoclasts (OCL), mono- and coculture
Method: (§1) Human MM cell lines used were as follows: NCI-H929, OPM-2, LP-1, RPMI-8226, U266 (DSMZ, Braunschweig, Germany). Cell lines were cultured in RPMI 1640 medium (Biochrom, Berlin, Germany) supplemented with 10% heat-inactivated fetal calf serum (FCS, Gibco, Karlsruhe, Germany), 1 mM sodium pyruvate and 100 units/ml penicillin and 100 μg/ml streptomycin (Gibco). Human osteoclasts were obtained as described in the reference of Zavrski I, Krebbel H, Wildemann B, et al. Proteasome inhibitors abrogate osteoclast differentiation and osteoclast function. Biochem Biophys Res Commun. 2005; 333:200-205. Briefly, peripheral blood mononuclear cells (PBMC) were isolated from whole blood of healthy volunteers, using a Ficoll-Hypaque density gradient. The adherent fraction of the isolated mononuclear cells was cultured for 21 days in MEM medium (Sigma-Aldrich Chemie, Taufkirchen, Germany) supplemented with 10% FCS, 100 U/ml penicillin, 100 μg/ml streptomycin, 50 ng/ml M-CSF, and 25 ng/ml RANKL (osteoclastogenic medium), before coculture experiments and treatment with the inventive compounds started. […]
(§2) Whole cell extracts were prepared and quantified as described in Jundt F, Anagnostopoulos I, Forster R, Mathas S, Stein H, Dorken B. Activated Notch1 signaling promotes tumor cell proliferation and survival in Hodgkin and anaplastic large cell lymphoma. […]

[2] = test system: OBL; assay: PARP cleavage in osteoblasts (OBL), mono- and coculture; conditions: mono- and cocultures, high doses of GSI15
Method: as §1, §2

[3] = test system: MSC; assay: Viability assay, MSC
Method: For assaying proliferation/viability of cells CellTiter-Glo Luminescent Cell Viability Assay (Promega, Mannheim, Germany) was used. In this assay the number of viable cells at a given time point is determined by quantification of ATP present, which serves as a measure of metabolically active cells. The assay was carried out according to manufacturer's protocol. Briefly, cells were plated in 96-well plates at 10,000 cells per well in 100 μl medium and treated with indicated amounts of GSI15, with DMSO as solvent control or left untreated. Each treatment was done in four independent replicates in different wells. 24 h and 48 h after start of treatment 30 μl per well were transferred into an opaque-walled plate and lysed using CellTiter-Glo solution. Luminescence was recorded and integrated for two seconds per well. Average values were calculated and normalized to the respective untreated sample.

## CC(C)c1ccc(S(=O)(=O)Nc2cccnc2Oc2ccc(Cl)cc2)cc1 [Example 1, N-(2-(4-chlorophenoxy)pyridin-3-yl)-4-isopropylbenzenesulfonamide]
[1]; OCL alone
  PARP cleavage: did not induce PARP cleavage
[1]; OCL cocultured with OPM-2 cells, high doses of GSI15
  PARP cleavage: it was induced
[2]
  PARP cleavage (apoptosis): Neither in OBL nor in MSC apoptosis was induced
[3]
  viability: no difference between untreated and GSI15 treated
